Measurements published in publication PMC11290850, “Screening of synthetic 1,2,3-triazolic compounds inspired by SRPIN340 as anti-Trypanosoma cruzi agents” (Revista da Sociedade Brasileira de Medicina Tropical, 2024).
“Also recorded” adds a separate entry of the source. Like-named read-outs stand apart in the source and are kept apart here.

Columns and labels:
[1] = system: intracellular amastigotes of Trypanosoma cruzi Tulahuen transfected with β-galactosidase strain; assay: In vitro trypanocidal activity, β-galactosidase-expressing T. cruzi in L929 fibroblasts; assay type: cell-based; settings: for IC50: intracellular amastigotes, Tulahuen β-galactosidase strain, 96 hours of exposition; for Selectivity index (SI): CC50 (L929)/IC50 (T. cruzi Tulahuen)
Method: The in vitro assays were conducted at the Centro de Pesquisas René Rachou-Fiocruz (FIOCRUZ-MINAS), Minas Gerais, Brazil. To evaluate trypanocidal activity, initial in vitro screening was performed following the protocols described by Buckner et al.[43] and Romanha et al.. In this assay, Tulahuen T. cruzi strain expressing β-galactosidase trypomastigotes and intracellular amastigotes were cultured in mouse L929 fibroblasts in RPMI1640 medium without phenol red and containing 10% fetal bovine serum. Tissue culture microplates with L929 fibroblasts were incubated overnight at 37°C with 5% CO2. Subsequently, the Tulahuen β-galactosidase-expressing trypomastigotes were added at a ratio of 1:10 cells to trypomastigotes for 2 hours. The medium was then replaced with fresh medium, and the cultures were incubated for 48 hours. Following this step, the medium was replaced with a solution of the test compound, diluted in dimethyl sulfoxide (DMSO, less than 1%), in RPMI1640 medium with concentrations ranging from 5 to 20 µM. […] Benznidazole was utilized as a positive control at 1 µg/mL (3.84 µM).
(§1) Because the amount of beta-galactosidase is directly proportional to the number of parasites, trypanocidal activity was assessed by measuring the decrease in beta-galactosidase activity in the treated cultures compared to the infected control culture without treatment. To determine the cytotoxicity of the compounds on L929 cells, absorbance was measured at two wavelengths (570 and 600 nm) after 4-6 hours of incubation with alamarBlue® reagent (Invitrogen Corporation, USA). Cytotoxicity was evaluated by analyzing the difference in reagent reduction between treated cells (TC) and untreated cells (UT) using an equation provided by the manufacturer of alamarBlue®: […]
(§2) Half-maximum inhibitory concentration (IC50) and half-maximum cytotoxicity concentration (CC50) values were determined through linear interpolation[45] using Excel software (Microsoft Corporation, USA). The assay was conducted in triplicate, and the results are expressed as the percentage inhibition of parasite growth Cytotoxicity assay.

[2] = Cytotoxicity on L929 cells (alamarBlue); assay type: cell-based; settings: mouse, L929 fibroblasts (infected with T. cruzi), 96-hour exposure
Method: as §1, §2
In vitro cytotoxicity assessments of the compounds were performed using AlamarBlue®. The cells and experimental conditions mirrored those used for the trypanocidal assay. After a 96-hour exposure of mouse L929 fibroblasts infected with T. cruzi to the test compounds, alamarBlue® was added, and absorbance was measured after an additional 4-6-hour incubation. IC50 values were determined by linear interpolation, and the selectivity index (SI) was calculated as the ratio of CC50 (the concentration causing 50% cytotoxicity) to IC50 (the concentration causing 50% parasitic inhibition). Benznidazole served as the positive control for comparative analysis.

U87MG lineage = system: U87MG lineage; set-up: method as in earlier work; settings: human glioblastoma cells; cited from earlier work
[3] = system: Trypanosoma cruzi Y strain; assay: In vivo rapid test, parasitemia in Swiss mice infected with T. cruzi Y strain; settings: for Reduction in parasitemia: oral gavage once daily for five days, doses of 10, 50, and 250 mg/kg/day; for Overall performance in vivo compared with BZ / Parasitemia compared to infected untreated animals / Parasitemia compared to the untreated group: oral; for Overall performance in vivo compared with BZ: BZ at 100 mg/kg; for Parasitemia compared to infected untreated animals: doses of 50 and 250 mg/kg/day; for Parasitemia compared to the untreated group: smallest dose 10 mg/kg/day
Method: The in vivo assays were conducted at the Laboratório de Pesquisas Clínicas, Escola de Farmácia, Universidade Federal de Ouro Preto (UFOP), Minas Gerais State, Brazil, utilizing only compounds with a selectivity index (SI) exceeding 50 (Table 1).
Swiss female mice aged 28-30 days were obtained from the Centro de Ciência Animal of the Universidade Federal de Ouro Preto (UFOP), Minas Gerais State, Brazil. The animals were housed in a temperature range of 20-24 °C with a 12-hour light-dark cycle, and had ad libitum access to filtered water and commercial feed. The experimental procedures were approved by the institutional Comitê de Ética em Experimentação Animal (CEUA-UFOP), Minas Gerais State, Brazil, Protocol 2157041219.
The mice were intraperitoneally infected with 1x10^4 blood trypomastigotes of the T. cruzi Y strain obtained from mice maintained by successive blood passages (CEUA 2015/50). Infection was confirmed by fresh blood examination (FBE)[46] on the 4th day after infection, and treatment commenced. For the in vivo test, the highest concentration attainable when blending the test compounds in various orally safe vehicles was selected. Canola oil yielded the most favorable results. The compounds were diluted with canola oil to the highest possible concentration of 25 mg/mL. Subsequently, two different dilutions (5x) were prepared, resulting in doses of 250, 50, and 10 mg/kg/day. These doses were administered via oral gavage once daily (group n = 8). In parallel, a control group of mice remained infected and untreated (INT), while another group received treatment with the reference drug (BZ) at a dose of 100 mg/kg. The BZ tablets were crushed with 0.5% gum arabic, and suspended in distilled water.
To evaluate the effectiveness of the compounds in reducing parasitemia, FBE was conducted daily for five consecutive days, during which parasitemia was counted.

[4] = Trypanosoma cruzi, TULAHUEN, L929, 96 h, read-out: IC50
[5] = Trypanosoma cruzi, TULAHUEN, L929, 96 h, value in brackets, read-out: IC50
[6] = top concentration limited by solubility (20 to 160 µg/mL)

Row | Compound | IC50 [1, 4] [µg/mL] | IC50 [1, 5] [µM] | CC50 at 96 h [2, 6] [µg/mL] | IC50 [1] | Cytotoxicity / cellular growth of U87MG lineage (U87MG lineage) | Selectivity index (SI) [1] | CC50 at 96 h ([2]; value in brackets) [µM] | Reduction in parasitemia [3] | Overall performance in vivo compared with BZ [3] | Parasitemia compared to infected untreated animals [3] | Parasitemia compared to the untreated group [3]
1 | O=C(Cn1ccnc1[N+](=O)[O-])NCc1ccccc1 [Benznidazole, reference compound] | 1 | 3.81 | 625 |  |  |  |  |  |  |  | 
2 | O=C1c2ccccc2C(=O)N1Cc1cn(-c2cc(C(F)(F)F)ccc2N2CCOCC2)nn1 [Compound 6A] |  |  |  | Not active | no perceived cytotoxicity |  |  |  |  |  | 
3 | FC(F)(F)c1ccc(N2CCOCC2)c(-n2cc(COCc3ccc(Cl)cc3)nn2)c1 [Compound 6B] |  | 5 | 36.1 |  |  | 15.7 | 79 |  |  |  | 
4 | FC(F)(F)c1ccc(N2CCOCC2)c(-n2cc(COCc3ccc(Br)cc3)nn2)c1 [Compound 6C] | < 5 | 6.8 | 80 |  |  | 23.5 | 161 |  |  |  | 
5 | COc1ccc(COCc2cn(-c3cc(C(F)(F)F)ccc3N3CCOCC3)nn2)cc1 [Compound 6D] | 6.6 | 15.7 | > 20 |  |  | >3.0 | > 47.6 |  |  |  | 
6 | FC(F)(F)c1ccc(N2CCOCC2)c(-n2cc(COCc3ccccc3)nn2)c1 [Compound 6E] | 0.5 | 1.3 | 62.6 |  |  | 125.2 | 160 | reduction in parasitemia; also recorded: effectively reduced | inferior overall performance | significantly reduced | did not markedly reduce parasitemia
7 | CCN(CC)c1ccc(C(F)(F)F)cc1-n1cc(COCc2ccc(Cl)cc2)nn1 [Compound 6F] |  |  |  | Not active |  |  |  |  |  |  | 
8 | FC(F)(F)c1ccc(N2CCCCC2)c(-n2cc(COCc3ccc(Cl)cc3)nn2)c1 [Compound 6G] | < 5 | 10.4 | > 160 |  |  |  | > 355 |  |  |  | 
9 | FC(F)(F)c1ccc(N2CCCCC2)c(-n2cc(COCc3ccc(Br)cc3)nn2)c1 [Compound 6H] |  | 4.6 | > 160 |  |  | >69 | > 323 | reduction in parasitemia; also recorded: effectively reduced | inferior overall performance | significantly reduced | did not markedly reduce parasitemia
10 | O=C1c2ccccc2C(=O)N1Cc1cn(-c2cc(C(F)(F)F)ccc2N2CCCCC2)nn1 [Compound 6I] |  |  |  | Not active |  |  |  |  |  |  | 
11 | FC(F)(F)c1ccc(N2CCCCC2)c(-n2cc(COCc3ccccc3)nn2)c1 [Compound 6J] | 6.5 | 15.6 | > 20 |  |  |  | > 48 |  |  |  | 
12 | COc1ccc(COCc2cn(-c3cc(C(F)(F)F)ccc3N3CCCCC3)nn2)cc1 [Compound 6K] | 10.5 | 23.5 | > 20 |  |  |  | > 45 |  |  |  | 
